Read-outs that look alike come from different tables or passages of the source.
Columns and labels:
Type in all cases: cell-based
[1] = test system: HCV 1a RLuc cells (dicistronic genotype 1a H77 replicon, RLuc reporter); experiment: microbe, parasite or virus in culture; conditions: Hepatitis C virus, read-out: 1a
Outline: (§1)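 Replicon cells stably carrying the listed RLuc-encoding dicistronic replicons were seeded and treated with DMSO serial dilutions of compound (10 mM stocks) diluted into culture medium. After 72 h, cells were lysed and Renilla luciferase activity measured. EC50 was derived by non-linear regression.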

[2] = test system: HCV 1b RLuc cells (dicistronic genotype 1b Con1 replicon, RLuc reporter); experiment: microbe, parasite or virus in culture; conditions: Hepatitis C virus, read-out: 1b (nM)
Outline: as §1

[3] = test system: HCV 2a JFH-1 Rluc cells (dicistronic genotype 2a JFH-1 replicon, RLuc reporter); experiment: microbe, parasite or virus in culture; conditions: Hepatitis C virus, read-out: 2a JFH
Outline: as §1

[4] = test system: HCV 2b Rluc cells (NS5A chimeric genotype 2a JFH-1 replicon with genotype 2b MD2b-1 NS5A gene, M31 present); experiment: microbe, parasite or virus in culture; conditions: Hepatitis C virus, read-out: 2b
Outline: as §1

[5] = test system: HCV 2a Rluc cells (NS5A chimeric genotype 2a JFH-1 replicon with genotype 2a J6 strain NS5A gene, M31 present); experiment: HCV replicon reporter assay, genotype 2a J6 (M31 present); conditions: Hepatitis C virus, read-out: 2a J6
Experimental: Evaluation of cell-based anti-HCV activity: Antiviral potency (EC50) was determined using a Renilla luciferase (RLuc)-based HCV replicon reporter assay. To perform the assay for genotype 1 and 2a JFH-1, HCV 1b RLuc cells (harboring a dicistronic genotype 1b Con1 replicon that encodes a RLuc reporter), or HCV 1a RLuc cells (harboring a dicistronic genotype 1a H77 replicon that encodes a RLuc reporter), or HCV 2a JFH-1 Rluc cells (harboring a dicistronic genotype 2a JFH-1 replicon that encodes a RLuc reporter) were dispensed into 384-well plates. To perform the assay for genotype 2a (with M31 present) or 2b, HCV 2a Rluc or 2b Rluc cells (both with M31 present) harboring a dicistronic NS5A chimeric genotype 2a JFH-1 replicon that encodes a RLuc reporter and either genotype 2a J6 strain NS5A gene or genotype 2b MD2b-1 NS5A gene (based on Los Alamos HCV database isolates, both with M31 present) respectively, were dispensed into 384-well plates. To perform the assay for genotype 3 and 4, HCV 3a RLuc or 4a Rluc cells harboring a dicistronic NS5A chimeric genotype 1b Con1 replicon that encodes a RLuc reporter and either a consensus genotype 3a NS5A gene or genotype 4a NS5A gene (based on Los Alamos HCV database isolates) respectively, were dispensed into 384-well plates. Compounds were re-suspended in DMSO at a concentration of 10 mM and serially diluted in DMSO either manually or using an automated pipeting instrument. Serially diluted compounds were mixed with cell culture media and added to the seeded cells. […] 72 hours later, cells were lysed and Renilla luciferase activity quantified as recommended by the manufacturer (Promega-Madison, Wis.). Non-linear regression was performed to calculate EC50 values.

[6] = test system: HCV 3a RLuc cells (NS5A chimeric genotype 1b Con1 replicon with consensus genotype 3a NS5A gene); experiment: microbe, parasite or virus in culture; conditions: Hepatitis C virus, read-out: 3a, genotype 3a replicon
Outline: as §1

[7] = test system: HCV 4a Rluc cells (NS5A chimeric genotype 1b Con1 replicon with genotype 4a NS5A gene); experiment: microbe, parasite or virus in culture; conditions: Hepatitis C virus, read-out: 4a
Outline: as §1

[8] = genotype 2a JFH-1 RLuc replicon

| SMILES | EC50 ([1]; genotype 1a H77 RLuc replicon) [pM] | EC50 [2] [nM] | EC50 [3, 8] [pM] | EC50 [4] [pM] | EC50 [5] [pM] | EC50 [1] [pM] | EC50 [3] [pM] | EC50 [6] [pM] | EC50 [7] [pM] |
| --- | --- | --- | --- | --- | --- | --- | --- | --- | --- |
| CC[C@H](C)[C@H](NC(=O)OC)C(=O)N1C[C@@H](COC)C[C@H]1c1nc2ccc3cc4c(cc3c2[nH]1)OCc1cc(-c2cnc([C@@H]3CC[C@H](C)N3C(=O)[C@@H](NC(=O)OC)C(C)C)[nH]2)ccc1-4 [Example 623] | 1 to 999 | 0.006 | 1 to 999 | 1 to 999 | 1 to 999 |  |  |  |  |
| COC[C@H]1C[C@@H](c2nc3ccc4cc5c(cc4c3[nH]2)OCc2cc(-c3cnc([C@@H]4C[C@H](C)CN4C(=O)C(NC(=O)OC)[C@H](C)OC)[nH]3)ccc2-5)N(C(=O)[C@@H](NC(=O)OC)[C@H](C)OC)C1 (stereo partly drawn) [Example 620] | 1 to 999 | 0.081 | 1 to 999 | 1 to 999 | 1 to 999 |  |  |  |  |
| CC[C@H](C)[C@H](NC(=O)OC)C(=O)N1C[C@@H](COC)C[C@H]1c1ncc(-c2ccc3c(c2)COc2cc4c(ccc5nc([C@@H]6CC[C@H](C)N6C(=O)[C@@H](NC(=O)OC)C(C)C)[nH]c54)cc2-3)[nH]1 [Example 619] | 1 to 999 | 0.007 | 1 to 999 | 1 to 999 | 1 to 999 |  |  |  |  |
| COC[C@H]1C[C@@H](c2nc3ccc4cc5c(cc4c3[nH]2)OCc2cc(-c3cnc([C@@H]4CCCN4C(=O)[C@H](NC(=O)OC)c4ccccc4)[nH]3)ccc2-5)N(C(=O)[C@@H](NC(=O)OC)[C@@H](C)OC)C1 [Example 635] |  |  |  | 1 to 999 |  | 1 to 999 | 1 to 999 |  |  |
| CC[C@H](C)[C@H](NC(=O)OC)C(=O)N1C[C@@H](C)C[C@H]1c1ncc(-c2ccc3c(c2)COc2cc4c(ccc5nc([C@@H]6C[C@H](COC)CN6C(=O)[C@@H](NC(=O)OC)C(C)C)[nH]c54)cc2-3)[nH]1 [Example 642] | 1 to 999 | 0.014 | 1 to 999 | 1 to 999 | 1 to 999 |  |  |  |  |
| COC[C@H]1C[C@@H](c2ncc(-c3ccc4c(c3)COc3cc5c(ccc6nc([C@@H]7C[C@H](COC(F)F)CN7C(=O)[C@@H](NC(=O)OC)C(C)C)[nH]c65)cc3-4)[nH]2)N(C(=O)[C@@H](NC(=O)OC)C(C)C)C1 [Example 634] | 1 to 999 | 0.015 | 1 to 999 | 1 to 999 | 1 to 999 |  |  |  |  |
| CC[C@@H](C)[C@H](NC(=O)OC)C(=O)N1C[C@@H](COC)C[C@H]1c1nc2ccc3cc4c(cc3c2[nH]1)OCc1cc(-c2cnc([C@@H]3CC[C@H](C)N3C(=O)[C@@H](NC(=O)OC)[C@H](C)CC)[nH]2)ccc1-4 [Example 643] | 1 to 999 |  | 1 to 999 | 1 to 999 | 1 to 999 |  |  |  |  |
| COC[C@H]1C[C@@H](c2ncc(-c3ccc4c(c3)COc3cc5c(ccc6nc([C@@H]7CCCN7C(=O)[C@@H](NC(=O)OC)C(C)C)[nH]c65)cc3-4)[nH]2)N(C(=O)[C@H](N)c2ccccc2)C1 [Example 607] | 1 to 999 |  | 1 to 999 | 1 to 999 | 1 to 999 |  |  |  |  |
| CC[C@H](C)C(NC(=O)OC)C(=O)N1CCC[C@H]1c1ncc(-c2cc3c4c(c2)OCc2cc(-c5cnc([C@@H]6CCCN6C(=O)[C@@H](NC(=O)OC)[C@@H](C)CC)[nH]5)cc(c2-4)OC3)[nH]1 (stereo in doubt) [Example 346] |  | 0.019 |  | 1000 to 44000 |  | 1 to 999 | 1 to 999 | 1 to 990 | 1 to 990 |
